In ChEMBL document CHEMBL3608227, “Synthesis and anti-tubercular activity of 2-nitroimidazooxazines with modification at the C-7 position as PA-824 analogs” (Bioorg Med Chem Lett, 2015):
Values after ≈ are worked out from the molar mass of the structure shown.

What follows are molecules tested on Mycobacterium tuberculosis (assay: Potency index, ratio of IC50 for PA-824 to IC50 for test compound against Mycobacterium tuberculosis H37Rv).
Assay type: functional

| Compound | Ratio IC50 |
| --- | --- |
| O=[N+]([O-])c1cn2c(n1)O[C@@H](CCOCc1ccc(OC(F)(F)F)cc1)CC2 | 5 |
| O=[N+]([O-])c1cn2c(n1)O[C@@H](CCOCc1ccc(-c3ccccc3)cc1)CC2 | 2 |

What follows are molecules tested on Mycobacterium tuberculosis (assay: Anti-tubercular activity against Mycobacterium tuberculosis H37Rv incubated at 37 degC by microscopy).
Assay type: functional

| Compound | MIC99 [µM] |
| --- | --- |
| O=[N+]([O-])c1cn2c(n1)O[C@@H](CCOCc1ccc(OC(F)(F)F)cc1)CC2 | 0.078 (≈ 0.0302 µg/mL) |
| O=[N+]([O-])c1cn2c(n1)O[C@H](CCOCc1ccc(OC(F)(F)F)cc1)CC2 | 0.39 (≈ 0.151 µg/mL) |
| CC(C)(C)c1ccc(COCC[C@H]2CCn3cc([N+](=O)[O-])nc3O2)cc1 | 0.39 (≈ 0.14 µg/mL) |
| O=[N+]([O-])c1cn2c(n1)O[C@@H](CCOCc1ccc(Br)cc1)CC2 | 0.39 (≈ 0.149 µg/mL) |
| O=[N+]([O-])c1cn2c(n1)O[C@@H](CCOCc1ccc(Cl)cc1)CC2 | 0.39 (≈ 0.132 µg/mL) |
| O=[N+]([O-])c1cn2c(n1)O[C@@H](CCOCc1ccc(C(F)(F)F)cc1)CC2 | 0.195 (≈ 0.0724 µg/mL) |
| O=[N+]([O-])c1cn2c(n1)O[C@@H](CCOCc1ccc(-c3ccccc3)cc1)CC2 | 0.195 (≈ 0.074 µg/mL) |
| O=[N+]([O-])c1cn2c(n1)O[C@@H](CCOc1ccc(OC(F)(F)F)cc1)CC2 | 0.098 (≈ 0.0366 µg/mL) |
| O=[N+]([O-])c1cn2c(n1)O[C@@H](CCOc1ccccc1)CC2 | 3.12 (≈ 0.904 µg/mL) |
| O=[N+]([O-])c1cn2c(n1)O[C@@H](CCOc1ccc(Cl)cc1)CC2 | 0.39 (≈ 0.126 µg/mL) |
| O=[N+]([O-])c1cn2c(n1)O[C@@H](CCOc1ccc(C(F)(F)F)cc1)CC2 | 0.195 (≈ 0.0697 µg/mL) |
| O=[N+]([O-])c1cn2c(n1)O[C@@H](CCOc1ccc(OCc3ccccc3)cc1)CC2 | 0.078 (≈ 0.0308 µg/mL) |
| O=[N+]([O-])c1cn2c(n1)O[C@H](CCOc1ccc(OCc3ccccc3)cc1)CC2 | 0.078 (≈ 0.0308 µg/mL) |
| O=[N+]([O-])c1cn2c(n1)O[C@@H](CCOc1ccc(-c3ccccc3)cc1)CC2 | 0.078 (≈ 0.0285 µg/mL) |
| O=[N+]([O-])c1cn2c(n1)O[C@@H](CCOc1ccc(-c3ccc(F)cc3)cc1)CC2 | 0.05 (≈ 0.0192 µg/mL) |
| O=C(OCC[C@H]1CCn2cc([N+](=O)[O-])nc2O1)OCc1ccc(OC(F)(F)F)cc1 | 0.078 (≈ 0.0336 µg/mL) |
| O=C(OCC[C@@H]1CCn2cc([N+](=O)[O-])nc2O1)OCc1ccc(OC(F)(F)F)cc1 | 1.56 (≈ 0.673 µg/mL) |
| O=C(OCC[C@H]1CCn2cc([N+](=O)[O-])nc2O1)OCc1cccc(OC(F)(F)F)c1 | 0.78 (≈ 0.336 µg/mL) |
| O=C(OCC[C@H]1CCn2cc([N+](=O)[O-])nc2O1)OCc1ccccc1OC(F)(F)F | 0.39 (≈ 0.168 µg/mL) |
| O=C(OCC[C@H]1CCn2cc([N+](=O)[O-])nc2O1)OCc1ccc(Cl)cc1 | 0.195 (≈ 0.0744 µg/mL) |
| O=C(OCC[C@H]1CCn2cc([N+](=O)[O-])nc2O1)OCc1ccc(C(F)(F)F)cc1 | 0.39 (≈ 0.162 µg/mL) |
| O=C(Nc1ccc(Cl)cc1)OCC[C@H]1CCn2cc([N+](=O)[O-])nc2O1 | 0.195 (≈ 0.0715 µg/mL) |
| O=C(Nc1ccc(-c2ccc(OC(F)(F)F)cc2)cc1)OCC[C@H]1CCn2cc([N+](=O)[O-])nc2O1 | 0.195 (≈ 0.096 µg/mL) |
| O=[N+]([O-])c1cn2c(n1)OC[C@@H](OCc1ccc(OC(F)(F)F)cc1)C2 [PRETOMANID] | 0.39 (≈ 0.14 µg/mL) |

The molecules below were run on Mycobacterium tuberculosis (assay: Anti-tubercular activity against Mycobacterium tuberculosis).
Assay type: functional, organism-based

| Compound | IC50 [nM] |
| --- | --- |
| O=[N+]([O-])c1cn2c(n1)OC[C@H](OCc1ccc(OC(F)(F)F)cc1)C2 | 160 |
| O=[N+]([O-])c1cn2c(n1)OC[C@@H](OCc1ccc(OC(F)(F)F)cc1)C2 [PRETOMANID] | 900 |

These molecules were tested on Mycobacterium tuberculosis (assay: Potency index, ratio of IC50 for PA-824 to IC50 for test compound against Mycobacterium tuberculosis).
Assay type: functional

| Compound | Ratio IC50 |
| --- | --- |
| O=[N+]([O-])c1cn2c(n1)OC[C@H](OCc1ccc(OC(F)(F)F)cc1)C2 | 6 |
